Tests used:
barnyardgrass [1] = assay: Test A preemergence; assay type: in vivo, Echinochloa crus-galli; conditions: 0 to 100 scale (0 no effect, 100 complete control)
Source text: (§1) Seeds of plant species selected from barnyardgrass (Echinochloa crus-galli), crabgrass, large (large crabgrass, Digitaria sanguinalis), kochia (Kochia scoparia), ragweed (common ragweed, Ambrosia elatior), foxtail, giant (giant foxtail, Setaria faberii), morningglory (Ipomoea spp.), pigweed (Amaranthus retroflexus), velvetleaf (Abutilon theophrasti), ryegrass, Italian (Italian ryegrass, Lolium multiflorum), wheat (Triticum aestivum), and corn (Zea mays) were planted into a blend of loam soil and sand and treated preemergence with a directed soil spray using test chemicals formulated in a non-phytotoxic solvent mixture which included a surfactant. At the same time, plants selected from these crop and weed species and also blackgrass (Alopecurus myosuroides), and galium (catchweed bedstraw, Galium aparine), were planted in pots containing the same blend of loam soil and sand and treated with postemergence applications of test chemicals formulated in the same manner. Plants ranged in height from 2 to 10 cm and were in the one- to two-leaf stage for the postemergence treatment. […] A dash (-) response means no test result.

crabgrass, large [2] = assay: Test A preemergence; assay type: in vivo, Digitaria sanguinalis; conditions: 0 to 100 scale (0 no effect, 100 complete control)
Source text: as §1

foxtail, giant [3] = assay: Test A preemergence; assay type: in vivo, Setaria faberii; conditions: 0 to 100 scale (0 no effect, 100 complete control)
Source text: as §1

morningglory [4] = assay: Test A preemergence; assay type: in vivo, Ipomoea spp.; conditions: 0 to 100 scale (0 no effect, 100 complete control)
Source text: as §1

pigweed [5] = assay: Test A preemergence; assay type: in vivo, Amaranthus retroflexus; conditions: 0 to 100 scale (0 no effect, 100 complete control)
Source text: as §1

velvetleaf [6] = assay: Test A preemergence; assay type: in vivo, Abutilon theophrasti; conditions: 0 to 100 scale (0 no effect, 100 complete control)
Source text: as §1

wheat [7] = assay: Test A preemergence; assay type: in vivo, Triticum aestivum; conditions: 0 to 100 scale (0 no effect, 100 complete control)
Source text: as §1

corn [8] = assay: Test A preemergence; assay type: in vivo, Zea mays; conditions: 0 to 100 scale (0 no effect, 100 complete control)
Source text: as §1

barnyardgrass [9] = assay: Test A postemergence; assay type: in vivo, Echinochloa crus-galli; conditions: 0 to 100 scale (0 no effect, 100 complete control), approx. 10 d
Source text: as §1

crabgrass, large [10] = assay: Test A postemergence; assay type: in vivo, Digitaria sanguinalis; conditions: 0 to 100 scale (0 no effect, 100 complete control), approx. 10 d
Source text: as §1

foxtail, giant [11] = assay: Test A postemergence; assay type: in vivo, Setaria faberii; conditions: 0 to 100 scale (0 no effect, 100 complete control), approx. 10 d
Source text: as §1

morningglory [12] = assay: Test A postemergence; assay type: in vivo, Ipomoea spp.; conditions: 0 to 100 scale (0 no effect, 100 complete control), approx. 10 d
Source text: as §1

pigweed [13] = assay: Test A postemergence; assay type: in vivo, Amaranthus retroflexus; conditions: 0 to 100 scale (0 no effect, 100 complete control), approx. 10 d
Source text: as §1

velvetleaf [14] = assay: Test A postemergence; assay type: in vivo, Abutilon theophrasti; conditions: 0 to 100 scale (0 no effect, 100 complete control), approx. 10 d
Source text: as §1

wheat [15] = assay: Test A postemergence; assay type: in vivo, Triticum aestivum; conditions: 0 to 100 scale (0 no effect, 100 complete control), approx. 10 d
Source text: as §1

corn [16] = assay: Test A postemergence; assay type: in vivo, Zea mays; conditions: 0 to 100 scale (0 no effect, 100 complete control), approx. 10 d
Source text: as §1

rice = assay: Test B flooded paddy test; assay type: in vivo, Oryza sativa; conditions: 125 g ai/ha, applied to paddy water at 2-leaf stage, visual rating after 13 to 15 d, scale 0 (no effect) to 100 (complete control)
Source text: (§2) At time of treatment, test pots were flooded to 3 cm above the soil surface, treated by application of test compounds directly to the paddy water, and then maintained at that water depth for the duration of the test. Treated plants and controls were maintained in a greenhouse for 13 to 15 d, after which time all species were compared to controls and visually evaluated. […] A dash (-) response means no test result.

sedge, umbrella = assay: Test B flooded paddy test; assay type: in vivo, Cyperus difformis; conditions: 125 g ai/ha, applied to paddy water at 2-leaf stage, visual rating after 13 to 15 d, scale 0 (no effect) to 100 (complete control)
Source text: as §2

ducksalad = assay: Test B flooded paddy test; assay type: in vivo, Heteranthera limosa; conditions: 125 g ai/ha, applied to paddy water at 2-leaf stage, visual rating after 13 to 15 d, scale 0 (no effect) to 100 (complete control)
Source text: as §2

barnyardgrass [17] = assay: Test B flooded paddy test; assay type: in vivo, Echinochloa crus-galli; conditions: 125 g ai/ha, applied to paddy water at 2-leaf stage, visual rating after 13 to 15 d, scale 0 (no effect) to 100 (complete control)
Source text: as §2

Row | Compound | Plant response rating, Barnyardgrass (barnyardgrass [1]; 125 g ai/ha) | Plant response rating, Barnyardgrass (barnyardgrass [1]; 500 g ai/ha, approx. 10 d) | Plant response rating, Crabgrass, Large (crabgrass, large [2]; 125 g ai/ha) | Plant response rating, Crabgrass, Large (crabgrass, large [2]; 500 g ai/ha, approx. 10 d) | Plant response rating, Foxtail, Giant (foxtail, giant [3]; 125 g ai/ha) | Plant response rating, Foxtail, Giant (foxtail, giant [3]; 500 g ai/ha, approx. 10 d) | Plant response rating, Morningglory (morningglory [4]; 125 g ai/ha) | Plant response rating, Morningglory (morningglory [4]; 500 g ai/ha, approx. 10 d) | Plant response rating, Pigweed (pigweed [5]; 125 g ai/ha) | Plant response rating, Pigweed (pigweed [5]; 500 g ai/ha, approx. 10 d) | Plant response rating, Velvetleaf (velvetleaf [6]; 125 g ai/ha) | Plant response rating, Velvetleaf (velvetleaf [6]; 500 g ai/ha, approx. 10 d) | Plant response rating, Wheat (wheat [7]; 125 g ai/ha) | Plant response rating, Wheat (wheat [7]; 500 g ai/ha, approx. 10 d) | Plant response rating, Corn (corn [8]; 125 g ai/ha) | Plant response rating, Corn (corn [8]; 500 g ai/ha, approx. 10 d) | Plant response rating, Barnyardgrass (barnyardgrass [9]; 125 g ai/ha) | Plant response rating, Barnyardgrass (barnyardgrass [9]; 500 g ai/ha) | Plant response rating, Crabgrass, Large (crabgrass, large [10]; 125 g ai/ha) | Plant response rating, Crabgrass, Large (crabgrass, large [10]; 500 g ai/ha) | also measured
1 | CCn1nc(-c2ccc(F)cc2)nc1Cc1ccnc(C(F)(F)F)c1 [Compound 18] | 10 | 60 | 90 | 100 | 90 | 100 | 10 | 40 | 100 | 100 | 10 | 70 | 0 | 0 | 0 | 0 | 30 | 60 | 60 | 90 | Plant response rating, Foxtail, Giant (foxtail, giant [11]; 125 g ai/ha): 50; Plant response rating, Foxtail, Giant (foxtail, giant [11]; 500 g ai/ha): 90; Plant response rating, Morningglory (morningglory [12]; 125 g ai/ha): 50; Plant response rating, Morningglory (morningglory [12]; 500 g ai/ha): 100; Plant response rating, Pigweed (pigweed [13]; 125 g ai/ha): 100; Plant response rating, Pigweed (pigweed [13]; 500 g ai/ha): 100; Plant response rating, Velvetleaf (velvetleaf [14]; 125 g ai/ha): 30; Plant response rating, Velvetleaf (velvetleaf [14]; 500 g ai/ha): 80; Plant response rating, Wheat (wheat [15]; 125 g ai/ha): 20; Plant response rating, Wheat (wheat [15]; 500 g ai/ha): 30; Plant response rating, Corn (corn [16]; 125 g ai/ha): 30; Plant response rating, Corn (corn [16]; 500 g ai/ha): 40; Plant response rating, Rice, Flood (rice): 0; Plant response rating, Sedge, Umbrella, Flood (sedge, umbrella): 70; Plant response rating, Ducksalad, Flood (ducksalad): 70; Plant response rating, Barnyardgrass, Flood (barnyardgrass [17]): 0
2 | Cn1nc(-c2ccc(F)cc2)nc1Cc1ccnc(C(F)(F)F)c1 [Compound 13] | 30 | 100 | 100 | 100 | 100 | 100 | 60 | 70 | 100 | 100 | 20 | 80 | 0 | 0 | 0 | 10 | 50 | 90 | 70 | 90 | Plant response rating, Foxtail, Giant (foxtail, giant [11]; 125 g ai/ha): 80; Plant response rating, Foxtail, Giant (foxtail, giant [11]; 500 g ai/ha): 90; Plant response rating, Morningglory (morningglory [12]; 125 g ai/ha): 70; Plant response rating, Morningglory (morningglory [12]; 500 g ai/ha): 100; Plant response rating, Pigweed (pigweed [13]; 125 g ai/ha): 100; Plant response rating, Pigweed (pigweed [13]; 500 g ai/ha): 100; Plant response rating, Velvetleaf (velvetleaf [14]; 125 g ai/ha): 70; Plant response rating, Velvetleaf (velvetleaf [14]; 500 g ai/ha): 90; Plant response rating, Wheat (wheat [15]; 125 g ai/ha): 30; Plant response rating, Wheat (wheat [15]; 500 g ai/ha): 40; Plant response rating, Corn (corn [16]; 125 g ai/ha): 30; Plant response rating, Corn (corn [16]; 500 g ai/ha): 60; Plant response rating, Rice, Flood (rice): 0; Plant response rating, Sedge, Umbrella, Flood (sedge, umbrella): 80; Plant response rating, Ducksalad, Flood (ducksalad): 65; Plant response rating, Barnyardgrass, Flood (barnyardgrass [17]): 0

— patent US10681909B2, “Herbicidal triazoles” (FMC Corporation, priority 2014, dated 2020)
